Earlier results on 2 compounds are cited in patent US20240066021A1, “METHODS FOR OPTIMIZING CFTR-MODULATOR THERAPY” (Children's Hospital Medical Center, priority 2021, published 2024).

In one series the target is T1, UFO (Homo sapiens, UniProt P30530).
T1 sequence (P30530 26-894): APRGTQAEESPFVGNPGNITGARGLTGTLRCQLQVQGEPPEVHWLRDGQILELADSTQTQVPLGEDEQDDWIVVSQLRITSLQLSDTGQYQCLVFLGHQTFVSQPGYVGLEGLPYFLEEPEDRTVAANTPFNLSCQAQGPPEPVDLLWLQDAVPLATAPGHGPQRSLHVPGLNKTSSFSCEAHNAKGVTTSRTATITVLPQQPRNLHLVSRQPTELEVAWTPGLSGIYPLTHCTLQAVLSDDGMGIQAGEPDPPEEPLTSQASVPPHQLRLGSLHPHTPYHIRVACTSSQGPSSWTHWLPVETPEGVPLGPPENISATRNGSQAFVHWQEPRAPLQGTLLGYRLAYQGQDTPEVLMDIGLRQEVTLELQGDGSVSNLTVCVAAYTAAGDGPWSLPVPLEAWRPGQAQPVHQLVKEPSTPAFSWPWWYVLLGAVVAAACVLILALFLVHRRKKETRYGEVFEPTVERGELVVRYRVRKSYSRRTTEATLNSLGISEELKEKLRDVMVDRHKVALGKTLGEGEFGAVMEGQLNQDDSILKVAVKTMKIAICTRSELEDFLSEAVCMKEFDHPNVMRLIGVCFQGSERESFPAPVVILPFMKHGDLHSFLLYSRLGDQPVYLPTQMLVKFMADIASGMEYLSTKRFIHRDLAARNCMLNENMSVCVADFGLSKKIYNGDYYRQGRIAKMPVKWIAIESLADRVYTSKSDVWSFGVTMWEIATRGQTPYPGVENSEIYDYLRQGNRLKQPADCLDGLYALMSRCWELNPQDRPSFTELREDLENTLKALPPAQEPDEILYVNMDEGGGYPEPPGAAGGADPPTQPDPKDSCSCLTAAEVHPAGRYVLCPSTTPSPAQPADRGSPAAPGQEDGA
To be noted: Target UFO, Gene Symbol AXL.

The next series deals with CENP-E (Homo sapiens, UniProt Q02224). The settings on record: Target CENP-E, Gene Symbol CENPE.
Sequence of CENP-E (Q02224 whole entry): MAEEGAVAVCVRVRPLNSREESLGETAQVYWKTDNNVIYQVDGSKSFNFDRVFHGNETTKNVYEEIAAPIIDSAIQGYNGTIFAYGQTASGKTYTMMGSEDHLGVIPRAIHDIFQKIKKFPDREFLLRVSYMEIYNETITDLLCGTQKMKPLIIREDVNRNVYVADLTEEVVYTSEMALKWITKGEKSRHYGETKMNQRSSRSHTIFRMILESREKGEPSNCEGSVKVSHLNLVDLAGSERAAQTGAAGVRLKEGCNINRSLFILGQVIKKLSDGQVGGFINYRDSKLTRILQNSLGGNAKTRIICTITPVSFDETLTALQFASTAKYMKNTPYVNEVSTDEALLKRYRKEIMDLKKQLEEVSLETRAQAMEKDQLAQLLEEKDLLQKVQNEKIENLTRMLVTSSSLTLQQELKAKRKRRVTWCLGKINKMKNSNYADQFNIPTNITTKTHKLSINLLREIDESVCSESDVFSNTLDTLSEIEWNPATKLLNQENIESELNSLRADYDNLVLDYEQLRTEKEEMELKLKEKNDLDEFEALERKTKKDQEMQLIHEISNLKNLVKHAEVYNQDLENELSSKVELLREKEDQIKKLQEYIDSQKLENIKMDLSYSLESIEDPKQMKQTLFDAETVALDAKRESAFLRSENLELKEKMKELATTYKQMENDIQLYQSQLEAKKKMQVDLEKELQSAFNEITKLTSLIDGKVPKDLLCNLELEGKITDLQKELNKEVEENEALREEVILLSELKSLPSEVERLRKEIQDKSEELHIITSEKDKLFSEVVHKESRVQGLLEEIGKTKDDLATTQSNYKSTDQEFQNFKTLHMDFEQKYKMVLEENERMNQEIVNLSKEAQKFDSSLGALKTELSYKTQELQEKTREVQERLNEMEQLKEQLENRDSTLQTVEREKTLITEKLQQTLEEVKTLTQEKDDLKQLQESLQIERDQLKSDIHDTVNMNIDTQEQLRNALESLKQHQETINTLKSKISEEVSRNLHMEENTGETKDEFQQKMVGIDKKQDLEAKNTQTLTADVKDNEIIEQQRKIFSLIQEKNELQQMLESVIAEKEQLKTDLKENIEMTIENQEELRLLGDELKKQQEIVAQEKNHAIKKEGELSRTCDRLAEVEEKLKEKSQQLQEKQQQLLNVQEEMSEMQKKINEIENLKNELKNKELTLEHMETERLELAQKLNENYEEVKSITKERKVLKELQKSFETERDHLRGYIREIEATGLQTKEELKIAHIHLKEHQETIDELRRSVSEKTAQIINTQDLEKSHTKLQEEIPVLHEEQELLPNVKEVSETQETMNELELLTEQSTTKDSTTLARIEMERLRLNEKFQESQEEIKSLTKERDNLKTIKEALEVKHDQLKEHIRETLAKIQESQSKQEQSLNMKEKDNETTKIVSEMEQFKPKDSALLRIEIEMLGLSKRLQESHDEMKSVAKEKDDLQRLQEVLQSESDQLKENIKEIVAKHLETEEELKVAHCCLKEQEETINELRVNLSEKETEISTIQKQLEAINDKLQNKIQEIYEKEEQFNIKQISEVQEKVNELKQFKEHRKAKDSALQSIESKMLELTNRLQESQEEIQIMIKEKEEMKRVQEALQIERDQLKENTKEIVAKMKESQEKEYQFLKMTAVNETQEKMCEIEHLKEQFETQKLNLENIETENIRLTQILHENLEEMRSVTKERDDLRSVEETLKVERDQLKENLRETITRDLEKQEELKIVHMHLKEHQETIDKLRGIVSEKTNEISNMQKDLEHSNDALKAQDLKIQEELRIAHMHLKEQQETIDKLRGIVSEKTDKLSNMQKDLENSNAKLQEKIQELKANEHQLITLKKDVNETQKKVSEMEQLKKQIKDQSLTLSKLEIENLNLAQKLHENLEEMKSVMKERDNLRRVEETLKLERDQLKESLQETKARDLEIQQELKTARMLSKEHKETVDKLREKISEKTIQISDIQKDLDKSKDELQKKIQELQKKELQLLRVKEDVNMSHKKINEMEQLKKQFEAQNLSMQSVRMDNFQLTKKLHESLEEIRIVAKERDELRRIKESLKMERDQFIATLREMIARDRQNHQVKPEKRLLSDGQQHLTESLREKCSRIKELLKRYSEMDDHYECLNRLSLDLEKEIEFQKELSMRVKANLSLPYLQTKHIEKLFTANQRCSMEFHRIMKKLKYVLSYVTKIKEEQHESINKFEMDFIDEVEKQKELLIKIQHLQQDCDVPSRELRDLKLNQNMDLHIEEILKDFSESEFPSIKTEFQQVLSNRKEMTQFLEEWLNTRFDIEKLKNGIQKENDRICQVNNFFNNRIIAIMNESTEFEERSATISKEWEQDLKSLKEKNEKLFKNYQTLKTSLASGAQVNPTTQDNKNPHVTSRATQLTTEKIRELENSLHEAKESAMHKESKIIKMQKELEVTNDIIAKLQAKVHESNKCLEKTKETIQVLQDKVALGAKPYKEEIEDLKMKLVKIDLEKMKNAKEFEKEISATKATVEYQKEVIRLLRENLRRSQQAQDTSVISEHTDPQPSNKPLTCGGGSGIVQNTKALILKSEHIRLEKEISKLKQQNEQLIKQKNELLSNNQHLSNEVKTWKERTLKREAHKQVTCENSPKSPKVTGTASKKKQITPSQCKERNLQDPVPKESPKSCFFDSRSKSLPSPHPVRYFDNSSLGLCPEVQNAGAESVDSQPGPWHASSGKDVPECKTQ

In the case of `COc1cc2c(Oc3ccc(NC(=O)C4(C(=O)Nc5ccc(F)cc5)CC4)cc3F)ccnc2cc1OCCCN1CCOCC1` [Foretinib], the Effect entry on UFO is on record as “Inhibition”.

Regarding `CC(C)Oc1ccc(C(=O)N[C@H](CNC(=O)CN(C)C)Cc2ccc(-c3cn4cccc([C@H](C)O)c4n3)cc2)cc1Cl` [GSK-923295], the Effect result at CENP-E is “Inhibition”.
